# What was measured:
# recombinant mouse OXGR1 = recombinant mouse OXGR1 (Mus musculus, UniProt Q6IYF8); settings: Nature 429:188-193, 2004, read-out: EC50 for activation of OXGR1; cited from earlier work
# isolated mouse islets = experiment: glucose-stimulated insulin secretion (GSIS/GDIS) in isolated mouse islets, insulin by ELISA; type: cell-based; settings: WT C57BL/6J mouse islets, 60 min, FIG. 3
# Description: Pancreatic islets of Langerhans were isolated from the pancreata of wild type (WT) C57BL/6J mice (Taconic Farm, N.Y.) by collagenase digestion and discontinuous Ficoll gradient separation, a modification of the original method of Lacy and Kostianovsky (Lacy P E, Kostianovsky M: Diabetes 16:35-39, 1967). The islets were cultured overnight in RPMI 1640 medium (11 mM glucose) before GDIS assay.
# To measure GSIS, islets were first preincubated for 30 min in the Krebs-Ringer bicarbonate (KRB) buffer with 2 mM glucose (in petri dishes). The KRB medium contains 143.5 mM Na+, 5.8 mM K+, 2.5 mM Ca2+, 1.2 mM Mg2+, 124.1 mM Cl−, 1.2 mM PO43−, 1.2 mM […], 25 mM CO32−2 mg/ml bovine serum albumin (pH 7.4). The islets were then transferred to a 96-well plate (one islet/well) and incubated at 37° C. for 60 min in 200 μl of KRB buffer with 2 or 16 mM glucose, and other agents to be tested such as GLP-1 included as a control. (Zhou Y P, et al: J Biol Chem 278:51316-51323, 2003). Insulin was measured in aliquots of the incubation buffer by ELISA with a commercial kit (ALPCO Diagnostics, Windham, N.H.).
# The compound had no effects on the basal insulin secretion at 2 mM glucose (G2).
# recombinant human OXGR1 = recombinant human OXGR1 (Homo sapiens, UniProt Q96P68); settings: Nature 429:188-193, 2004, read-out: EC50 for activation of OXGR1; cited from earlier work
# recombinant human OXGR1, sequence (Q96P68 whole entry): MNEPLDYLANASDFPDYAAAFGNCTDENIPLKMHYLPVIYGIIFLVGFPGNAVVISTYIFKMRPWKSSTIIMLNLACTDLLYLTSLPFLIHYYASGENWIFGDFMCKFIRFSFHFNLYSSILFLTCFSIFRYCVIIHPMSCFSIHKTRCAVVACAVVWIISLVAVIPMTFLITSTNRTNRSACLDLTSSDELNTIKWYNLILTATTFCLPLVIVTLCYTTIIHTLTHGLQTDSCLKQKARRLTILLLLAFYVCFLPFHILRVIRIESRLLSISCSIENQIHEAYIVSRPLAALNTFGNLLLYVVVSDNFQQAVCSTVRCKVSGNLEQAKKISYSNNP
# recombinant mouse OXGR1, sequence (Q6IYF8 whole entry): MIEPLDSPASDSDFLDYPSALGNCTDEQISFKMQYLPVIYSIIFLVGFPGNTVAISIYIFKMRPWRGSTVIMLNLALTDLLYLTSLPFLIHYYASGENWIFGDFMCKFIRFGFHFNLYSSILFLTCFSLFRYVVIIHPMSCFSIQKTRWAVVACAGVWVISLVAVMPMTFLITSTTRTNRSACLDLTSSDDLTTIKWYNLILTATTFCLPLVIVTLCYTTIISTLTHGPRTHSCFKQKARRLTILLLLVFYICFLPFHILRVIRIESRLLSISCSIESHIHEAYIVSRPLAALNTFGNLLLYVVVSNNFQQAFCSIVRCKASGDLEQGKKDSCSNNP
compound,measurement,setting,value
"O=C(O)CCC(=O)C(=O)O [α-KG, α-ketoglutarate]",EC50,recombinant mouse OXGR1,70 µM
same,effect on basal insulin secretion at 2 mM glucose (G2),isolated mouse islets; 2 mM glucose,no effects
same,effect on 16 mM glucose (G16) stimulated insulin secretion,isolated mouse islets; 16 mM glucose,dose-dependently enhanced
same,EC50,recombinant human OXGR1,70 µM

# From patent publication US20100143383A1, “OXGR1 AGONISTS FOR USE IN THERAPIES FOR METABOLIC DISORDERS” (priority 2008, published 2010)
